From ChEMBL document CHEMBL3045414, “Synthesis and evaluation of 2,4,6-trisubstituted pyrimidine derivatives as novel antileishmanial agents” (2013)

System: Leishmania donovani
Experiment: Antileishmanial activity against promastigote stage of Leishmania donovani assessed as parasite growth inhibition at 10 ug/ml after 2 hr by MTT assay relative to control
Assay type: functional
Settings: read-out: GI

| SMILES | inhibition of growth at 10 µg/mL [%] |
| --- | --- |
| Nc1nc(-c2ccc(Br)cc2)cc(-c2ccc(-n3cnc4ccccc43)cc2)n1 | 32.5 |
| COc1ccc(-c2cc(-c3ccc(-n4cnc5ccccc54)cc3)nc(N)n2)cc1 | 51.2 |
| Nc1nc(-c2ccccc2)cc(-c2ccc(-n3ccnc3)cc2)n1 | 32.8 |
| Nc1nc(-c2ccccc2)cc(-c2ccc(-n3cnc4ccccc43)cc2)n1 | 41.9 |
| COc1ccc(-c2cc(-c3ccc(-n4ccnc4)cc3)nc(N)n2)cc1 | 18.1 |
| Nc1nc(-c2ccc(Br)cc2)cc(-c2ccc(-n3ccnc3)cc2)n1 | 24.3 |
| Nc1nc(-c2ccc(Cl)cc2)cc(-c2ccc(-n3ccnc3)cc2)n1 | 46.1 |
| Nc1nc(-c2ccc(-n3cnc4ccccc43)cc2)cc(-c2ccc(Cl)cc2Cl)n1 | 56.4 |
| Nc1nc(-c2ccc(F)cc2)cc(-c2ccc(-n3cnc4ccccc43)cc2)n1 | 29.6 |
| Nc1nc(-c2ccc(Cl)cc2)cc(-c2ccc(-n3cnc4ccccc43)cc2)n1 | 32.7 |
